Results taken from US12319726B2, “Method for treating CD40-mediated diseases” (CASE WESTERN RESERVE UNIVERSITY, priority 2008, dated 2025).
Where a SMILES comes first, the peptide text is derived from it. [ ]: non-standard residue; d: D form.

Tests used:
[1] = test system: human retinal endothelial cells; assay: ICAM-1 upregulation in human retinal endothelial cells (flow cytometry); format: cell-based; details: 1 μM, 24 h
Description: FIG. 18 illustrates graphs showing ri CD40-TRAF2,3 blocking peptide inhibits CD40-driven upregulation of ICAM-1. Human retinal endothelial cells were treated with ri control peptide (Ctr P) or ri CD40-TRAF2,3 blocking peptide (T2,3 BP; both at 1 μM) followed by stimulation with CD154 or TNF-α. Expression of ICAM-1 was assessed by flow cytometry at 24 h. Data shown represent Mean±SD. Results are representative of 2 independent experiments. **P<0.01.
Primary human retinal endothelial cells were obtained as described (9) and cultured in complete medium supplemented with endothelial cell growth supplement from bovine pituitary (15 μg/ml; Sigma Chemical, St Louis, MO) and insulin/transferrin/selenium (Sigma Chemical). Cell identity was confirmed by incorporation of acetylated low-density lipoprotein (>90%). Endothelial cells were used between passages 3 to 6. The human Müller cell line MIO M1 (gift from Dr. Gloria Limb; University College London, UK; >95% vimentin^+, CRALBP^+ and GFAP^−) was also used. Endothelial cells were incubated with multimeric human CD154 to induce CD40 stimulation (obtained from Dr. Richard Kornbluth, Multimeric Biotherapeutics Inc., La Jolla, CA) or with a non-functional CD154 mutant (T147N) as control.
Cells were incubated with anti-ICAM-1 mAb (eBiosciences). After fixation with 1% paraformaldehyde, cells were analyzed using an LSR II (Becton Dickinson). […]

[2] = test system: CD40-TRAF2,3 signaling; assay: NF-κB luciferase reporter assay in mHEVc expressing hmCD40 ΔT6 (signals through the TRAF2,3 binding site); format: cell-based, mouse; details: 1 μM, 3 hr pre-incubation, hmCD40 ΔT6 cells; P<0.01
Description: Mouse endothelial cells (mHEVc) that express an NF-κB response element that drives transcription of a luciferase reporter plus either hmCD40 ΔT2,3 or hmCD40 ΔT6 were pre-incubated with ri control peptide (Ctr P) or ri CD40-TRAF2,3 blocking peptide (T2,3 BP; both at 1 μM) or medium alone followed by stimulation with human CD154. Data are expressed as fold-increase in normalized luciferase activity in cells stimulated with CD154 compared to cells treated with respective peptide in the absence of CD154. Data shown represent Mean±SD. Results are representative of 2 independent experiments. **P<0.01.
Peptides were tested as described using the mouse endothelial cells mHEVc that expresses a chimera of the extracellular domain of human CD40 and intracytoplasmic domain of mouse CD40 (hmCD40) with either a mutation that prevents recruitment of TRAF2,3 (hmCD40 ΔT2,3) or TRAF6 (hmCD40 ΔT6). These cells were transfected with pGL4.32luc2P/NF-κB-RE/Hygro vector (Promega Corporation, Madison, WI) encoding an NF-κB response element that drives the luciferase reporter gene luc2P (Photinus pyralis). Cells were pre-incubated with peptides for 3 hr. followed by stimulation with human CD154. Luciferase activity was assessed using a Steady-Glo luciferase assay system (Promega Corporation) and a luminometer. The effects of peptides on cell viability were examined using alamarBlue cell viability assay. […]

NF-κB activity (luciferase) after human CD154 [2]: inhibited NF-κB activity
Compound: CC(C)C[C@@H](NC(=O)[C@@H](Cc1c[nH]cn1)NC(=O)CNC(=O)[C@@H](Cc1ccc(O)cc1)NC(=O)CNC(=O)[C@@H](CCCNC(=N)N)NC(=O)[C@@H](CCCCN)NC(=O)[C@@H](CCCCN)NC(=O)[C@@H](CCCNC(=N)N)NC(=O)[C@@H](CCCNC(=N)N)NC(=O)[C@@H](CCC(N)=O)NC(=O)[C@@H](CCCNC(=N)N)NC(=O)[C@@H](CCCNC(=N)N)NC(=O)[C@H](N)CCCNC(=N)N)C(=O)N[C@@H](C(=O)N[C@H](CCC(=O)O)C(=O)N[C@H](CCC(N)=O)C(=O)N[C@@H](C(=O)N[C@H](Cc1c[nH]cn1)C(=O)N[C@H](C)C(=O)N[C@H](C)C(=O)N[C@@H](C(=O)N[C@H](CC(N)=O)C(=O)O)[C@H](C)O)C(C)C)[C@H](C)O [ri CD40-TRAF2,3 blocking peptide, NH2-rrrqrrkkrgy ghlteqvhaatn-OH] (H-[dR][dR][dR][dQ][dR][dR][dK][dK][dR]G[dY]G[dH][dL][dT][dE][dQ][dV][dH][dA][dA][dT][dN]-OH)
upregulation of ICAM-1 in response to CD154 ([1]; CD154 stimulation, P<0.01): impaired upregulation of ICAM-1
TNF-α-induced upregulation of ICAM-1 ([1]; TNF-α stimulation): no effect
